The source of these data is patent publication US5026688A (Administrators of the Tulane Educational Fund, priority 1988, dated 1991).

The subject of one data set is reverse transcriptase. The settings on record: cited from earlier work.
The next data set deals with p24 gag protein of HIV. The settings on record: in vitro; Mitsuya et al. 1985; cited from earlier work.
Data set [1] deals with peripheral blood lymphocytes. Kind of data set: uptake of radiolabelled drug by peripheral blood lymphocytes (PBL). The class given is in vitro ADME. The protocol:
DP-AZT was therefore tested to determine if the problem of rapid elimination and inadequate permeability could be overcome.
PBL from HIV seronegative donors were also separated by standard Ficol-Hypaque gradient centrifugation. The lymphocytes were grown in RPMI 1640 supplemented with 15% heat-inactivated FBS, 100 U/ml penicillin, 100 μg/ml streptomycin and 2 μg/ml PHA. The cells were incubated for 4 days at 37° C. and uptake studies were done according to the procedure described above for H9 cells.

Another data set concerns H9 cells. Briefly: uptake of radiolabelled drug by H9 cells. The class given is in vitro ADME. The settings on record: for cellular uptake relative to AZT, in words: H9 cells (FIGS. 6, 7). The protocol: The reaction was stopped by centrifugation at 13,000×g for 1 min. The cell free supernatant was discarded by aspiration and the cell pellet was washed with ice cold PBS to remove any traces of free radioactive drug. The cell pellet was resuspended in PBS and counted for radioactivity in a Tri-carb Packard liquid scintillation analyzer Model 1500 (Packard Instruments Co., Dowers Grove, Ill.) and the percentage of radioactivity was calculated. (All experiments were done in duplicate and repeated at least three times).

A further data set concerns HIV-1. Briefly: inhibition of HIV-1 replication in PBL (p24 antigen in culture supernatant). The class given is cell-based. The note with it: for P24 antigen in culture supernatant: drug-free control 372,835 pg/ml. The protocol: The concentration of virus-specificp24 antigen in the culture, and, therefore the ability of each drug to inhibit HIV replication was measured by their ability to inhibit production of the p24 antigen.
Inhibition of HIV-1 replication was determined using PBL from seronegative donors. PBL activated with 2 μg/ml PHA for 72 hrs were washed with medium and 10×10^6 cells were incubated for 4 hr at 37° C. (Mitsuya et al., PNAS USA 82:7096, […]) in 5 ml medium containing the appropriate concentration of the drug. The cells were then infected with 10^4 TCID50 of HIV (isolated CD 451) by the addition of 0.1 ml of virus preparation and gentle rocking of the cultures of 15 min intervals for 90 min at room temperature. The fluid volume was increased to 10ml and the cultures maintained at 37° C. in a humidified 5% CO2 -in-air atmosphere. On day 3 post-infection, half the cell-free fluid in each culture was removed and replaced with fresh medium containing the respective drug. The extent of HIV replication in a control and the experimental cultures was evaluated 7 days post-infection by quantifying the concentration of HIV-specific p24 antigen in an undiluted and 5-fold serial dilutions of the culture supernatants using commercial antigen-capture assay kits (DuPont, Billerica, Mass.). The concentration of HIV-specific p24 antigen in the 7 day supernatant fluid of a drug-free control culture was 372,835 pg/ml.

The conditions of data set [2]: in vivo; cited from earlier work.
For data set [3] the following is noted: Richman et al. 1987; cited from earlier work.
In the next data set the test system is AIDS. The note with it: cited from earlier work.
Data set [4] concerns peripheral blood lymphocytes. Kind of data set: hydrolysis of DP-AZT to AZT in PBL. The settings on record: 500 μM DP-[3H]-AZT, 5×10^5 PBL, 37° C., 4 h. The class given is in vitro ADME. As for the experimental part:
(§1) In contrast, bone marrow cells were able to hydrolyze only 50% of the pro-drug at the end of 4 hours of incubation.
Suspensions of 5×10^5 PBL (100 μl) in Eppendorf tubes were mixed with 100 μl of 500 μM DP-AZT and incubated at 37° C. At various time intervals (0 to 4 hrs), cell pellets were collected after centrifugation at 13,000×g for 1 min, washed with PBS and extracted with ice-cold 0.2 M perchloric acid. The acid extracts were clarified by centrifugation, neutralized with KOH, centrifuged to remove insoluble potassium perchlorate, evaporated to dryness under reduced pressure (Buchler Evapo-Mix apparatus) and constituted with 200 μl of methanol (Zimmerman et al., J. Biol. Chem. 262:5748, 1987).

A further data set concerns mouse bone marrow cells. Kind of data set: bone marrow toxicity: inhibition of [3H]-thymidine uptake in murine bone marrow cells. Type of data set: cell-based. The note with it: for less inhibition of [3H]-thymidine incorporation into bone marrow cells than AZT: relative to AZT, 60 h exposure, 12 h pulse. As for the experimental part:
The percent inhibition of [^3 H]-thymidine uptake was used as an indication of bone marrow toxicity (FIG. 5).
The bone marrow cells were obtained from CD-1 mice as described under Section 6.2.3, supra. Approximately 2×10^5 cells in 100 μl of medium were plated in a 96-well plate, 100 μl of drug solution at various concentrations (0-500 μM) was added, and the plate was incubated at 37° C. for 60 hr. [^3 H]-Thymidine (0.2 μc/well, specific activity 30 c/mmole) was pulsed for 12 hr, and at the end of 72 hr cells were harvested by using Skatron 7019 cell harvester.
On the technique in general: Uptake of a labelled nucleoside into DNA is a usual measure of proliferation.

Data set [5] is described as follows: hydrolysis of DP-AZT in mouse bone marrow cells. The note with it: end of 4 hours of incubation, read-out: hydrolysis of the pro-drug. Type of data set: in vitro ADME. The protocol:
as §1
Bone marrow cells were obtained from femurs of 8-week old CD-1 mice. The femurs were removed asceptically and rinsed in RPMI-1640. Bone marrow cells were flushed with medium by using a 19-gauge needle and a single cell suspension was made by pipette action. These cells were used for hydrolytic experiments similar to described above for PBL.

Data set [6] can be described thus: physical and chemical stability. Type of data set: physicochemical. The source says:
The general pattern of synthesis of DP-AZT is outlined in FIG. 1. Treatment of 3,-azido-2',3'-dideoxythymidine in the presence of DCC and 4-dimethyl amino pyridine in ethyl acetate yield the nicotinyl ester. The ester is then quarternized by refluxing it in acetone with methyl iodide. […] In addition to DP-AZT, other derivatives at the N-methyl site in particular can also be prepared.

Data set [7] is described as follows: hydrolysis of DP-AZT by rat liver microsomes. The class given is in vitro ADME. The note with it: 15.5 mg protein/ml, 37° C., 0 to 4 h. As for the experimental part:
as §1
To 900 μl of rat liver microsomes containing 15.5 mg protein/ml (Wong et al., Biochem. Pharmacol. 37:473, 1988), 100 μl of DP-AZT (2 mg/ml dissolved in dimethylsulfoxide) was added and incubated at 37° C. in a water bath. At various time intervals (0 to 4 h) 100 μl of sample was withdrawn and added immediately to ice-cold methanol (400 μl).
For orientation: Liver microsomes are vesicles of endoplasmic reticulum, rich in cytochrome P450 enzymes.

Data set [8] is described as follows: hydrolysis of DP-AZT by human plasma in vitro. The note with it: up to 4 hours in incubation. The class given is in vitro ADME.
A further data set deals with HIV. The note with it: Yamamoto et al. 1986; cited from earlier work.
In data set [9] the test system is retrovirally infected mice. The settings on record: Watson et al. 1988; cited from earlier work.
Setting [10] is: 0.5 μM drug, 7 days post-infection.
Where [11] appears, read: 5.0 μM drug, 7 days post-infection.
Setting [12] is: 10.0 μM drug, 7 days post-infection.
Where [13] appears, read: Human immunodeficiency virus 1, PBL, 168 h, 0.5 μM drug, 7 days post-infection, read-out: p24 antigen, % reduction of control.
The mark [14] stands for this setting: Human immunodeficiency virus 1, PBL, 168 h, 5.0 μM drug, 7 days post-infection, read-out: p24 antigen, % reduction of control.
Setting [15] is: Human immunodeficiency virus 1, PBL, 168 h, 10.0 μM drug, 7 days post-infection, read-out: p24 antigen, % reduction of control.

Where two headings read alike, the source gives them in different places.

For `Cc1cn([C@H]2C[C@H](N=[N+]=[N-])[C@@H](COP(=O)(O)OP(=O)(O)OP(=O)(O)O)O2)c(=O)[nH]c1=O` [AZT triphosphate], in the data set with reverse transcriptase, the “reverse transcriptase inhibition, in words” value is listed as “competitive inhibitor of reverse transcriptase”.

For `Cc1cn([C@H]2C[C@H](N=[N+]=[N-])[C@@H](CO)O2)c(=O)[nH]c1=O` [AZT, 3'-azido-2',3'-dideoxythymidine, reference compound], in the data set on p24 gag protein of HIV, the “expression of p24 gag protein of HIV, in words” value is given as “blocks the expression of the p24 gag protein of HIV”. The “time to maximum intracellular concentration” value in [1] (5 μM, PBL) came out at 2 h; in the data set with H9 cells (5 μM, H-9 cells), 2 h. For the same molecule, the uptake linearity result in data set [1] (5 μM, PBL) is listed as “linear for one hour”; in the data set on H9 cells (5 μM, H-9 cells) it was “linear for one hour”. Further, the “P24 antigen in culture supernatant” value in the data set with HIV-1 (setting [10]) was 67,273 pg/ml; in the data set with HIV-1 (setting [11]) it was 1,758 pg/ml; in the data set on HIV-1 (setting [12]), 2,235 pg/ml. The inhibition at 0.5 µM in the data set on HIV-1 (setting [13]) came out at 82%. Also, the inhibition at 5 µM in the data set on HIV-1 (setting [14]) amounted to 99.5%. Also, in the data set on HIV-1 (setting [15]), the inhibition at 10 µM worked out at 99.4%. The “half-life in plasma, in words” value in [2] is “very short half-life in plasma”. Further, in the data set on reverse transcriptase, the “reverse transcriptase inhibition, in words” value was “does not inhibit reverse transcriptase”. For the same molecule, in data set [3], the major adverse reactions result is “nausea, myalgia and insomnia”. Further, in the data set on AIDS (Fischl et al. 1987), the “mortality in comparison with placebo, in words” value is reported as “significant differences in mortality”. In the data set with AIDS (individuals with AIDS-related complex, Fischl et al.), the “progression of disease, in words” value is on record as “delay the progression of the disease”.

Take `Cc1cn([C@H]2C[C@H](N=[N+]=[N-])[C@@H](COC(=O)C3=CN(C)C=CC3)O2)c(=O)[nH]c1=O` [DP-AZT, 5,-[(1,4-dihydro-1-methyl-3-pyridinylcarbonyl)oxy] -3,-azido-2',3'dideoxythymidine]: the “hydrolysis of the pro-drug” value in [4] is recorded as “complete hydrolysis of the pro-drug within four hours”. For the same molecule, the “less inhibition of [3H]-thymidine incorporation into bone marrow cells than AZT” value in the data set with mouse bone marrow cells (5 μM) was 44%; with mouse bone marrow cells (10 μM), 59%. The “bone marrow toxicity relative to AZT, in words” value in the data set with mouse bone marrow cells (5 and 10 μM) is “significantly less toxic than AZT”. In addition, in data set [5], the metabolised at 4 h, 500 µM amounted to 50%. Moreover, the “time to maximum intracellular concentration” value was 2 h in data set [1] (5 μM, PBL) and 2 h with H9 cells (5 μM, H-9 cells). Further, the uptake linearity result was “linear for one hour” in data set [1] (5 μM, PBL) and “linear for one hour” in the data set on H9 cells (5 μM, H-9 cells). Further, the “higher intracellular concentration than [3H]-AZT” value is listed as “at least 50%” in data set [1] (PBL, 5 μM, relative to AZT) and “at least 50%” with H9 cells (H-9 cells, 5 μM, relative to AZT). Also, in [6] (during crystallization and drying), the air oxidation stability result is given as “stable compound which does not undergo air oxidation”. Also, in [6] (hydrogen peroxide or sodium nitrate solution), the “result of attempted chemical oxidation” value is recorded as “hydrolysis of the ester producing AZT”. Also, the “efficacy against HIV-1 relative to AZT, in words” value in the data set on HIV-1 (0.5 μM) is given as “significantly greater efficacy against HIV-1 than AZT had”. In addition, the “P24 antigen in culture supernatant” value was 3,310 pg/ml in the data set on HIV-1 (setting [10]), 475 pg/mL with HIV-1 (setting [11]) and 215 pg/mL in the data set with HIV-1 (setting [12]). For the same molecule, the inhibition at 0.5 µM with HIV-1 (setting [13]) is 99.1%; in the data set with HIV-1 (Human immunodeficiency virus 1, read-out: inhibition (p24 antigen)), 99%. In addition, the inhibition at 5 µM in the data set with HIV-1 (setting [14]) is 99.9%. Further, the inhibition at 10 µM in the data set with HIV-1 (setting [15]) worked out at 99.9%. In [7], the “hydrolysis by rat liver microsomes” value is on record as “hydrolyzed by rat-liver microsomes (FIG. 4) in a manner similar to that observed in PBL”. Moreover, the “hydrolysis by human plasma in vitro” value in data set [8] is recorded as “not hydrolyzed”.

With `Cc1cn([C@H]2C[C@H](N=[N+]=[N-])[C@@H](COC(=O)CN3CCN(c4ccccc4)CC3)O2)c(=O)[nH]c1=O` [N-phenylpiperazine analogue], the “cellular uptake relative to AZT, in words” value with H9 cells was “improved cellular uptake”.

On to `CC1=C(/C=C/C(C)=C/C=C/C(C)=C/C(=O)O)C(C)(C)CCC1` [Retinoic acid], for which the “HIV replication, in words” value in the data set on HIV is listed as “inhibit HIV replication somewhat”.

On to `Cc1cn([C@H]2C[C@H](N=[N+]=[N-])[C@@H](COC(=O)c3ccc[n+](C)c3)O2)c(=O)[nH]c1=O` [compound 2], for which the hygroscopicity entry in [6] is “hygroscopic”.

Consider `Cc1cn([C@H]2C[C@H](N=[N+]=[N-])[C@@H](COC(=O)C(N)Cc3ccccc3)O2)c(=O)[nH]c1=O` (some centres unmarked) [phenylalanine AZT analogue], for which the “cellular uptake relative to AZT, in words” value in data set [1] (PBL (FIG. 8)) is recorded as “improved over AZT with respect to cellular uptake”.

Regarding `CC1=C(/C=C/C(C)=C/C=C/C(C)=C/C(=O)OC[C@H]2O[C@@H](n3cc(C)c(=O)[nH]c3=O)C[C@@H]2N=[N+]=[N-])C(C)(C)CCC1` [retinoic acid ester of AZT], in the data set on H9 cells, the “cellular uptake relative to AZT, in words” value is reported as “a substantial improvement over cellular uptake of AZT”.

On to `Cc1cn([C@H]2C[C@H](N=[N+]=[N-])[C@@H](COC(=O)C(N)Cc3ccc(O)cc3)O2)c(=O)[nH]c1=O` (some centres unmarked) [tyrosine AZT analogue], for which the “cellular uptake relative to AZT, in words” value in the data set on H9 cells is recorded as “improved over AZT with respect to cellular uptake”.

Regarding Vitamin A, the “activated macrophages and death rate, in words” value in data set [9] was “increased numbers of activated macrophages and decreased death rate”.
